Patent publication US7179818B2, “Substituted aminoquinuclidine compounds” (Ortho-McNeil Pharmaceutical, Inc., priority 2002, dated 2007)
Where a name gives a salt, the structure may show the parent alone. Read-outs that look alike come from different tables or passages of the source.

Tests used:
δ-opioid receptor = target: T1, δ-opioid receptor (Rattus norvegicus, UniProt P33533); experiment: Rat brain δ-opioid receptor binding assay ([3H]DPDPE); settings: for δ-Opioid Receptor Binding, Inhibition at 1 μM: single concentration 1 μM
T1 construct: from tissue; host or cells: rat (Wistar) forebrain homogenate, particulate preparation
Method: (§1) Male, Wistar rats (150–250 g, VAF, Charles River, Kingston, N.Y.) are killed by cervical dislocation, and their brains removed and placed immediately in ice cold Tris HCl buffer (50 mM, pH 7.4). The forebrains are separated from the remainder of the brain by a coronal transection, beginning dorsally at the colliculi and passing ventrally through the midbrain-pontine junction. After dissection, the forebrains are homogenized in Tris buffer in a Teflon®-glass homogenizer. The homogenate is diluted to a concentration of 1 g of forebrain tissue per 100 mL Tris buffer and centrifuged at 39,000×G for 10 min. The pellet is resuspended in the same volume of Tris buffer with several brief pulses from a Polytron homogenizer. This particulate preparation is used for the δ-opioid binding assays. Following incubation with the δ-selective peptide ligand [^3H]DPDPE at 25° C., the tube contents are filtered through Whatman GF/B filter sheets on a Brandel cell harvester. The tubes and filters are rinsed three times with 4 mL of 10 mM HEPES (pH 7.4), and the radioactivity associated with the filter circles determined using Formula 989 scintillation fluid (New England Nuclear, Boston, Mass.) in a scintillation counter.
The data are used to calculate either the % inhibition compared to control binding (when only a single concentration of test compound is evaluated) or a Ki value (when a range of concentrations are tested).
% Inhibition was calculated as: […]
(§2) Ki value is calculated using the LIGAND (Munson, P. J. and Rodbard, D., Anal. Biochem. 107: 220–239, 1980) data analysis program.

μ-opioid receptor = target: T2, μ-opioid receptor (Rattus norvegicus, UniProt P33535); experiment: Rat brain μ-opioid receptor binding assay ([3H]DAMGO)
T2 construct: from tissue; host or cells: rat (Wistar) forebrain homogenate, particulate preparation
Method: as §1, with “Chades” for “Charles”, “dislocation” for “dislocation,”, “μ-opioid” for “δ-opioid”, “Following incubation with the δ-selective peptide ligand [^3H]DPDPE at 25° C., the tube contents are filtered through Whatman GF/B filter sheets on a Brandel cell harvester.” left out, “7.4)” for “7.4),”
The data are used to calculate either the % inhibition compared to control binding (when only a single concentration of test compound is evaluated) or a Ki value (when a range of concentrations is tested).
% Inhibition is calculated as: […]
as §2

[1] = test system: acetylcholine bromide-induced abdominal constriction response; experiment: Mouse acetylcholine bromide-induced abdominal constriction assay (MAIT); type: in vivo; settings: 150 μmole/Kg p.o., acetylcholine bromide 5.5 mg/kg i.p. 30 min later
Method: The mouse acetylcholine-induced abdominal constriction assay, as described by Collier et al. in Brit. […] The test drugs or appropriate vehicles were administered orally (p.o.) and 30 min later the animal received an intraperitoneal (i.p.) injection of 5.5 mg/kg acetylcholine bromide (Matheson, Coleman and Bell, East Rutherford, N.J.). The mice were then placed in groups of three into glass bell jars and observed for a ten min observation period for the occurrence of an abdominal constriction response (defined as a wave of constriction and elongation passing caudally along the abdominal wall, accompanied by a twisting of the trunk and followed by extension of the hind limbs). For compounds of the present invention, the percent inhibition of this response to a nociceptive stimulus (equated to °/analgesia) was calculated as follows:
[formula] • CAR: Control Animal Responses • DTAR: Drug-Treated Animal Responses

[2] = rat forebrain membranes, [3H]DPDPE, 25° C., read-out: δ-Opioid Receptor Binding Ki
[3] = rat forebrain membranes, [3H]DAMGO, 25° C., read-out: μ-Opioid Receptor Binding Ki
[4] = rat forebrain membranes, [3H]DPDPE

T2 sequence (P33535 whole entry): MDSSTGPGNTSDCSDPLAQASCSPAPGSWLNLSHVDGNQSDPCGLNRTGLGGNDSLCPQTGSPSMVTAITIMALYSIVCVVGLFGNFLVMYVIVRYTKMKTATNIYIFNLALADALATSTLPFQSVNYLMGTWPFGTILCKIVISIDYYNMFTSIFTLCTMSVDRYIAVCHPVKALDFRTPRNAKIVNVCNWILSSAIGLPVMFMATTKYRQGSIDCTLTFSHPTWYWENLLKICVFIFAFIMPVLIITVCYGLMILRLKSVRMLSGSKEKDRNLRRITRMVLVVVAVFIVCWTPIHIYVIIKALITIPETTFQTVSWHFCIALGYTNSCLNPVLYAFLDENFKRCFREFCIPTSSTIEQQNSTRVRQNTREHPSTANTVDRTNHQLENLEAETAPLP
T1 sequence (P33533 whole entry): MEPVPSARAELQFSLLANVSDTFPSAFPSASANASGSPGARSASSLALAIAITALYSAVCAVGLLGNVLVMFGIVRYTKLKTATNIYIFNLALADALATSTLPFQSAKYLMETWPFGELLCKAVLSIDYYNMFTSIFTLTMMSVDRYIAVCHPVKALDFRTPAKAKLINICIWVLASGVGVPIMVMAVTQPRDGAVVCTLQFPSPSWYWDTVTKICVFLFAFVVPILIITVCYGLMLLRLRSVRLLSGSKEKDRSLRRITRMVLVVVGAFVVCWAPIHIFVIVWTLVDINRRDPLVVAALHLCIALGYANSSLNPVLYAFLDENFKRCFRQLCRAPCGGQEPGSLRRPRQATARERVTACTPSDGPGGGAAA

| Compound | Ki (δ-opioid receptor) | MAIT % Inhibition [1] | Ki (μ-opioid receptor) | further results |
| --- | --- | --- | --- | --- |
| CCN(CC)C(=O)c1ccc(N(Cc2ccccc2)C2CN3CCC2CC3)cc1 (centres unmarked) (as salt: fumarate) (hydrate or solvate) [Compound 16, N,N-Diethyl-4-[phenylmethyl-(1-azabicyclo[2.2.2]octan-3-amino)]benzamide Fumarate Hydrate [1:1.5:1]] | – | – | – | melting point: 107 to 110 °C |
| CCN(CC)C(=O)c1ccc(N(Cc2ccccc2F)C2CN3CCC2CC3)cc1 (centres unmarked) (as salt: fumarate) (hydrate or solvate) [Compound 18] | – | – | – | melting point: 193 to 196 °C |
| CCN(CC)C(=O)c1ccc(N(Cc2cccc(Cl)c2)C2CN3CCC2CC3)cc1 (centres unmarked) (as salt: fumarate) [Compound 17] | – | – | – | melting point: 193 to 196 °C |
| CCN(CC)C(=O)c1ccc(N(c2ccccc2)[C@H]2C3CCN(CC3)[C@@H]2C)cc1 [Compound 8, N,N-Diethyl-4-[phenyl-(trans-2-methyl-1-azabicyclo[2.2.2]octan-3-amino)]benzamide Fumarate Hydrate [1:1:0.5]] | – | – | – | Ki (δ-opioid receptor; [2]): 26 nM; Ki (μ-opioid receptor; [3]): 1340 nM |
| CCN(CC)C(=O)c1ccc(N(Cc2ccccc2)C2CN3CCC2CC3)cc1 (centres unmarked) [Compound 16, N,N-Diethyl-4-[phenylmethyl-(1-azabicyclo[2.2.2]octan-3-amino)]benzamide Fumarate Hydrate [1:1.5:1]] | 50 nM | 50% | 1920 nM | – |
| CCN(CC)C(=O)c1ccc(N(Cc2cccc(Cl)c2)C2CN3CCC2CC3)cc1 (centres unmarked) [Compound 17] | 21 nM | 16.7% | 914 nM | – |
| CCN(CC)C(=O)c1ccc(N(Cc2ccccc2F)C2CN3CCC2CC3)cc1 (centres unmarked) [Compound 18] | 39 nM | 28.6% | 1160 nM | – |
| CCN(CC)C(=O)c1ccc(N(Cc2cccc(F)c2)C2CN3CCC2CC3)cc1 (centres unmarked) [Compound 19] | 5.5 nM | 18.2% | 1120 nM | – |
| CCN(CC)C(=O)c1ccc(N(Cc2ccccc2)[C@H]2CN3CCC2CC3)cc1 [Compound 20, (−)-(R)-N,N-Diethyl-4-[phenylmethyl-(1-azabicyclo[2.2.2]octan-3-amino)]benzamide Fumarate Hydrate [1:1.5:1]] | 11 nM | 57.1% | 1240 nM | – |
| CCN(CC)C(=O)c1ccc(N(Cc2ccccc2)[C@@H]2CN3CCC2CC3)cc1 [Compound 21, (+)-(S)-N,N-Diethyl-4-[phenylmethyl-(1-azabicyclo[2.2.2]octan-3-amino)]benzamide Fumarate Hydrate [1:1.5:1]] | 20 nM | 35.720% | 2550 nM | – |
| N,N-Diethyl-4-[(3,5-dichlorophenyl)-(1-azabicyclo[2.2.2]octan-3-amino)]benzamide Hydrochloride [Compound 7, N,N-Diethyl-4-[(3,5-dichlorophenyl)-(1-azabicyclo[2.2.2]octan-3-amino)]benzamide Hydrochloride [1:1]] | – | – | – | δ-Opioid Receptor Binding, Inhibition at 1 μM (δ-opioid receptor; [4]): <50% |
| N,N-Diethyl-4-[(3-thiomethylphenyl)-(trans-2-methyl-1-azabicyclo[2.2.2]octan-3-amino)]benzamide Fumarate [Compound 10, N,N-Diethyl-4-[(3-thiomethylphenyl)-(trans-2-methyl-1-azabicyclo[2.2.2]octan-3-amino)]benzamide Fumarate [1:1.5]] | – | 25% | – | – |
| N,N-Diethyl-4-[(3-trifluoromethylphenyl)-(1-azabicyclo[2.2.2]octan-3-amino)]benzamide Hydrochloride [Compound 4, N,N-Diethyl-4-[(3-trifluoromethylphenyl)-(1-azabicyclo[2.2.2]octan-3-amino)]benzamide Hydrochloride [1:1]] | – | – | – | δ-Opioid Receptor Binding, Inhibition at 1 μM (δ-opioid receptor; [4]): <50% |
| N,N-Diethyl-4-[phenyl-(1-azabicyclo[2.2.2]octan-3-amino)]-3-chlorobenzamide Fumarate [Compound 13, N,N-Diethyl-4-[phenyl-(1-azabicyclo[2.2.2]octan-3-amino)]-3-chlorobenzamide Fumarate [1:1]] | – | – | – | Ki (δ-opioid receptor; [2]): 880 nM |
| N,N-Diethyl-4-[phenyl-(1-azabicyclo[2.2.2]octan-3-amino)]-3-fluorobenzamide Fumarate [Compound 11, N,N-Diethyl-4-[phenyl-(1-azabicyclo[2.2.2]octan-3-amino)]-3-fluorobenzamide Fumarate [1:1]] | – | – | – | Ki (δ-opioid receptor; [2]): 255 nM; Ki (μ-opioid receptor; [3]): 8330 nM |
| N,N-Diethyl-4-[phenyl-(1-azabicyclo[2.2.2]octan-3-amino)]-3-methylbenzamide Fumarate [Compound 12, N,N-Diethyl-4-[phenyl-(1-azabicyclo[2.2.2]octan-3-amino)]-3-methylbenzamide Fumarate [1:1]] | – | – | – | Ki (δ-opioid receptor; [2]): 608 nM; Ki (μ-opioid receptor; [3]): 10000 nM |
| N,N-Diethyl-4-[phenyl-(1-azabicyclo[2.2.2]octan-3-amino)]benzamide Fumarate [Compound 1, N,N-Diethyl-4-[phenyl-(1-azabicyclo[2.2.2]octan-3-amino)]benzamide Fumarate [1:1]] | – | 55.6% | – | – |
| N,N-Diethyl-4-[phenyl-(cis-2-methyl-1-azabicyclo[2.2.2]octan-3-amino)]benzamide [Compound 9] | – | 20% | – | – |
| N-Morpholino-4-[phenyl-(1-azabicyclo[2.2.2]octan-3-amino)]benzamide Fumarate [Compound 15, N-Morpholino-4-[phenyl-(1-azabicyclo[2.2.2]octan-3-amino)]benzamide Fumarate [1:1]] | – | – | – | δ-Opioid Receptor Binding, Inhibition at 1 μM (δ-opioid receptor; [4]): <50% |
| N-pyrrolidinyl-4-[(4-methoxyphenyl)-(1-azabicyclo[2.2.2]octan-3-amino)]benzamide Fumarate [Compound 14, N-pyrrolidinyl-4-[(4-methoxyphenyl)-(1-azabicyclo[2.2.2]octan-3-amino)]benzamide Fumarate [1:1]] | – | – | – | δ-Opioid Receptor Binding, Inhibition at 1 μM (δ-opioid receptor; [4]): <50% |
